Target: full-length ATR (Homo sapiens (Human), UniProt Q13535)
Assay: ATR Inhibition Assay (radioactive-phosphate incorporation)
Assay type: biochemical
Settings: read-out: ATR Ki
In short: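 Ki(app) was derived by non-linear regression of background-corrected initial rates of 33P incorporation into an 800 μM target peptide, read by phosphocellulose filter scintillation counting. Reaction conditions: 5 nM full-length ATR, 10 μM [γ-33P]ATP, pH 7.5 Tris buffer with MgCl2 and DTT, 25 °C, 10-min preincubation, 24 h run.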

full-length ATR, sequence (Q13535 whole entry): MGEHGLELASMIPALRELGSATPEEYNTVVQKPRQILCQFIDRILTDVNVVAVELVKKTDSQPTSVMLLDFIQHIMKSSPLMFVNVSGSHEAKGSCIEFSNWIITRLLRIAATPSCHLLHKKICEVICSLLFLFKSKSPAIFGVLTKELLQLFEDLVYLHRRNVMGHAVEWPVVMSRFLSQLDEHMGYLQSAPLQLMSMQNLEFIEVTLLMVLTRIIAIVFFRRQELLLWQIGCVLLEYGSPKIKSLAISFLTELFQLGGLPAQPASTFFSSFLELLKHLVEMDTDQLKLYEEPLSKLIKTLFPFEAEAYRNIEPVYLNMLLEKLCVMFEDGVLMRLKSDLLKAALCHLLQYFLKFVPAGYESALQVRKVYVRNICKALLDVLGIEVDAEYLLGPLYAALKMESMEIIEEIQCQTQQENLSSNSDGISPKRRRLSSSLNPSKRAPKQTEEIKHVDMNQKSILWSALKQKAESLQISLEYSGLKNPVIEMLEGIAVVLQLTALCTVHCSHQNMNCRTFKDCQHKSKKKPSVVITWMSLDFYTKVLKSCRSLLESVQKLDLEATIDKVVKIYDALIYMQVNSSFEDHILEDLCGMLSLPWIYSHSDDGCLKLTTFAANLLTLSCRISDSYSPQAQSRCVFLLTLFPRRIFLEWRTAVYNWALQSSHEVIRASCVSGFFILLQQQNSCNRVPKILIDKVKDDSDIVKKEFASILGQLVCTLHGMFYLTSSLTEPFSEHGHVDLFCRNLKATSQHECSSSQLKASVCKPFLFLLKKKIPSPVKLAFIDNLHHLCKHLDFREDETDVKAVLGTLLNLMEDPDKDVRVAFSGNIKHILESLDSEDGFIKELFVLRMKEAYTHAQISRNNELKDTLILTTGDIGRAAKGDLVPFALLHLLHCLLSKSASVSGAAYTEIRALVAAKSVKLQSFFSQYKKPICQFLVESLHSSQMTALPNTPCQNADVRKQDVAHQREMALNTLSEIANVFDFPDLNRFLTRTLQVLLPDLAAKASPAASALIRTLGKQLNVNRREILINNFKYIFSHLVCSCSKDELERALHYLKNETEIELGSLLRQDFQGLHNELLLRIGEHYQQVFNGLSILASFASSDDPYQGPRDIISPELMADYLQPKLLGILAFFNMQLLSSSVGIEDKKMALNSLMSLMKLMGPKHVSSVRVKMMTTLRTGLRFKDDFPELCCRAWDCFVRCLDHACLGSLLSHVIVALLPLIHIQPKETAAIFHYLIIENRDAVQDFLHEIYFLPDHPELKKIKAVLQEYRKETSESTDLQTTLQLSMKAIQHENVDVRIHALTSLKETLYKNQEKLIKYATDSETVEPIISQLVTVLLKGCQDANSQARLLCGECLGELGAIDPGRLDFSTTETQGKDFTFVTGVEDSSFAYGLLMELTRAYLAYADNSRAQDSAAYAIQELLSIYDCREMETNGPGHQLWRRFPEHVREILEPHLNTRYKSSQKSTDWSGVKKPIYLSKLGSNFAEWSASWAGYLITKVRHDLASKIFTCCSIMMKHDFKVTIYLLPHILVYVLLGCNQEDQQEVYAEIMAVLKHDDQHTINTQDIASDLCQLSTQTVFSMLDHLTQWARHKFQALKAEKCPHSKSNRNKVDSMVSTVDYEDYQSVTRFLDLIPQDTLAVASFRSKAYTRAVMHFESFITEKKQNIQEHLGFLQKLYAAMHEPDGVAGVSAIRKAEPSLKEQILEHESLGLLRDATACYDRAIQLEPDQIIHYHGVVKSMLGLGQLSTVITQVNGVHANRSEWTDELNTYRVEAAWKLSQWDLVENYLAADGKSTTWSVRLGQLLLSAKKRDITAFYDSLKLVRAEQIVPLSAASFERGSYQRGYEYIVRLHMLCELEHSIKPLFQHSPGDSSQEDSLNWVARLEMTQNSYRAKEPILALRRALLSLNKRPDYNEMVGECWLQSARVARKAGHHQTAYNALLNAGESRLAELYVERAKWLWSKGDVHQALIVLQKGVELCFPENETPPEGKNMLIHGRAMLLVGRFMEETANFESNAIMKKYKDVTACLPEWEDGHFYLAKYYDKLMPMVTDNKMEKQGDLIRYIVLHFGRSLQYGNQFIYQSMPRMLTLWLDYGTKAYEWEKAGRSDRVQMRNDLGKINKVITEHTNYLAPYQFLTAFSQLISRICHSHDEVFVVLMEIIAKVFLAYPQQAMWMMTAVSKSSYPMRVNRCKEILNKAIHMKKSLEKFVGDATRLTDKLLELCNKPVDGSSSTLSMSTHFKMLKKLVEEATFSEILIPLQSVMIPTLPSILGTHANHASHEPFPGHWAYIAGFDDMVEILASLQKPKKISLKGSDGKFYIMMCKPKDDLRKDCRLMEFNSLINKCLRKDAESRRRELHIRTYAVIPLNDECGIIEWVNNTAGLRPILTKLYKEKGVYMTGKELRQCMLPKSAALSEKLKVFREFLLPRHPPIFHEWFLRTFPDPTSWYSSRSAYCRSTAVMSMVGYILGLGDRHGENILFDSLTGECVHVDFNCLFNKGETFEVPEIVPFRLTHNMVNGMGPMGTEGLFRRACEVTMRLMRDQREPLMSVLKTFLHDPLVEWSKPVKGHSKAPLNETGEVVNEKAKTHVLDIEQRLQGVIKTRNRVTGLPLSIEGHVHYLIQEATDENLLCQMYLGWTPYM

Structure (SMILES) | Ki
Nc1ncc(-c2ccc(C(=O)NCCO)cc2)nc1-c1nc2ccccc2[nH]1 [Compound I-132, 4-(5-amino-6-(1H-benzo[d]imidazol-2-yl)pyrazin-2-yl)-N-(2-hydroxyethyl)benzamide] | 10 to 100 nM
COC(=O)N1CCCN(C(=O)c2ccc(-c3cnc(N)c(-c4nnc(-c5ccccc5)o4)n3)cc2)CC1 [IA-34] | ≤ 10 nM
CN(C)C(=O)c1ccc(-c2cnc(N)c(-c3nnc(-c4cccc(CNC(=O)OC(C)(C)C)c4)o3)n2)cc1 [IA-73, tert-butyl N-[[3-[5-[3-amino-6-[4-(dimethylcarbamoyl)phenyl]pyrazin-2-yl]-1,3,4-oxadiazol-2-yl]phenyl]methyl]carbamate] | ≤ 10 nM
N#Cc1ccncc1-c1cnc(N)c(-c2nnc(-c3ccccc3)o2)n1 [IA-153, 3-(5-amino-6-(5-phenyl-1,3,4-oxadiazol-2-yl)pyrazin-2-yl)pyridine-4-carbonitrile] | 10 to 100 nM
N#CCCN1CCN(C(=O)c2ccc(-c3cnc(N)c(C(=O)Nc4ccccc4)n3)cc2)CC1 [Compound I-81, 3-amino-6-(4-(4-(2-cyanoethyl)piperazine-1-carbonyl)phenyl)-N-phenylpyrazine-2-carboxamide] | ≤ 10 nM
Nc1ncc(-c2cccnc2)nc1-c1nnc(-c2cccs2)[nH]1 [IIIA-4, 5-(pyridin-3-yl)-3-(5-(thiophen-2-yl)-4H-1,2,4-triazol-3-yl)pyrazin-2-amine] | 10 to 100 nM
CC(C)[S+]([O-])c1ccccc1-c1cnc(N)c(-c2nnc(-c3ccccc3)o2)n1 (centres unmarked) [IA-136, 5-(2-(isopropylsulfinyl)phenyl)-3-(5-phenyl-1,3,4-oxadiazol-2-yl)pyrazin-2-amine] | 10 to 100 nM
CC(=O)Nc1nnc(-c2nc(-c3ccc(C(=O)N(C)C)cc3)cnc2N)o1 [IA-278, 4-[6-(5-acetamido-1,3,4-oxadiazol-2-yl)-5-amino-pyrazin-2-yl]-N,N-dimethyl-benzamide] | 100 to 5000 nM
COc1ccccc1NC(=O)c1nc(-c2ccoc2)cnc1N [Compound I-37, 3-amino-6-(furan-3-yl)-N-(2-methoxyphenyl)pyrazine-2-carboxamide] | 10 to 100 nM
Nc1ncc(-c2ccc(N3CCOCC3)nc2)nc1-c1nc2ccccc2[nH]1 [Compound I-135, 3-(1H-benzo[d]imidazol-2-yl)-5-(6-morpholinopyridin-3-yl)pyrazin-2-amine] | 100 to 5000 nM
CC(C)S(=O)(=O)c1ccc(-c2cnc(N)c(-c3nnc(-c4ccc(N)cc4)o3)n2)cc1 [IA-201, 3-[5-(4-aminophenyl)-1,3,4-oxadiazol-2-yl]-5-(4-isopropylsulfonylphenyl)pyrazin-2-amine] | ≤ 10 nM
CCCS(=O)(=O)c1ccc(-c2cnc(N)c(-c3nnc(-c4ccc(CNC)cc4)o3)n2)cc1 [IA-310, 3-[5-[4-(methylaminomethyl)phenyl]-1,3,4-oxadiazol-2-yl]-5-(4-propylsulfonylphenyl)pyrazin-2-amine] | ≤ 10 nM
COCCNCc1ccc(-c2nnc(-c3nc(-c4ccc(S(=O)(=O)C(C)C)cc4)cnc3N)o2)cc1 [IA-119, 5-(4-isopropylsulfonylphenyl)-3-[5-[4-[(2-methoxyethylamino)methyl]phenyl]-1,3,4-oxadiazol-2-yl]pyrazin-2-amine] | ≤ 10 nM
Nc1ncc(-c2cccc(F)c2)nc1C(=O)Nc1ccccc1 [Compound I-9, 3-amino-6-(3-fluorophenyl)-N-phenylpyrazine-2-carboxamide] | 100 to 5000 nM
Nc1ncc(-c2cccc(C(=O)NCCN3CCCC3)c2)nc1C(=O)Nc1ccccc1 [Compound I-54, 3-amino-N-phenyl-6-(3-(2-(pyrrolidin-1-yl)ethylcarbamoyl)phenyl)pyrazine-2-carboxamide] | 100 to 5000 nM
CS(=O)(=O)c1ccccc1-c1cnc(N)c(-c2nnc(-c3ccccc3)o2)n1 [IA-190, 5-(2-methylsulfonylphenyl)-3-(5-phenyl-1,3,4-oxadiazol-2-yl)pyrazin-2-amine] | 100 to 5000 nM
CNCc1ccc(-c2nnc(-c3nc(-c4ccc(S(=O)(=O)C(C)C)c(C)c4)cnc3N)o2)cc1 [IA-312, 5-(4-isopropylsulfonyl-3-methyl-phenyl)-3-[5-[4-(methylaminomethyl)phenyl]-1,3,4-oxadiazol-2-yl]pyrazin-2-amine] | ≤ 10 nM
CC(C)S(=O)(=O)c1ccc(-c2cnc(N)c(-c3nnc(NC(=O)[C@@H]4CCCCN4)o3)n2)cc1 [IA-211, (2S)—N-[5-[3-amino-6-(4-isopropylsulfonylphenyl)pyrazin-2-yl]-1,3,4-oxadiazol-2-yl]piperidine-2-carboxamide] | 100 to 5000 nM
CC(N)c1cccc(-c2nnc(-c3nc(-c4ccc(S(=O)(=O)C(C)C)cc4)cnc3N)o2)c1 (centres unmarked) [IA-282, 3-[5-[3-(1-aminoethyl)phenyl]-1,3,4-oxadiazol-2-yl]-5-(4-isopropylsulfonylphenyl)pyrazin-2-amine] | ≤ 10 nM
CNCc1ccc(-c2nnc(-c3nc(-c4ccc(S(=O)(=O)C(C)C)cc4)cnc3N)o2)cc1F [IA-336, 3-[5-[3-fluoro-4-(methylaminomethyl)phenyl]-1,3,4-oxadiazol-2-yl]-5-(4-isopropylsulfonylphenyl)pyrazin-2-amine] | ≤ 10 nM
CNCc1ccc(-c2nnc(-c3nc(-c4ccc(S(=O)(=O)NCCO)cc4)cnc3N)o2)cc1 [IA-304, 4-[5-amino-6-[5-[4-(methylaminomethyl)phenyl]-1,3,4-oxadiazol-2-yl]pyrazin-2-yl]-N-(2-hydroxyethyl)benzenesulfonamide] | ≤ 10 nM

Structure (SMILES) | Ki
Nc1ncc(-c2ccc(C(=O)NCCN3CCCC3)cc2)nc1-c1nc2ccccc2[nH]1 [Compound I-133, 4-(5-amino-6-(1H-benzo[d]imidazol-2-yl)pyrazin-2-yl)-N-(2-(pyrrolidin-1-yl)ethyl)benzamide] | 10 to 100 nM
CNCc1ccc(-c2nnc(-c3nc(-c4ccc(S(=O)(=O)C5CCOC5)cc4)cnc3N)o2)cc1 (centres unmarked) [IA-302, 3-[5-[4-(methylaminomethyl)phenyl]-1,3,4-oxadiazol-2-yl]-5-(4-tetrahydrofuran-3-ylsulfonylphenyl)pyrazin-2-amine] | ≤ 10 nM
COCc1ccccc1-c1cnc(N)c(-c2nnc(-c3ccccc3)o2)n1 [IA-125, 5-[2-(methoxymethyl)phenyl]-3-(5-phenyl-1,3,4-oxadiazol-2-yl)pyrazin-2-amine] | 100 to 5000 nM
CNCc1ccc(-c2nnc(-c3nc(-c4ccc(S(=O)(=O)C(C)C)c(F)c4)cnc3N)o2)cc1 [IA-314, 5-(3-fluoro-4-isopropylsulfonyl-phenyl)-3-[5-[4-(methylaminomethyl)phenyl]-1,3,4-oxadiazol-2-yl]pyrazin-2-amine] | ≤ 10 nM
Nc1ncc(-c2ccc(C(=O)O)cc2)nc1C(=O)Nc1ccccc1 [Compound I-7, 4-(5-amino-6-(phenylcarbamoyl)pyrazin-2-yl)benzoic acid] | 10 to 100 nM
C#Cc1nnc(-c2nc(-c3ccc(S(=O)(=O)C(C)C)cc3)cnc2N)o1 [IA-258, 3-(5-ethynyl-1,3,4-oxadiazol-2-yl)-5-(4-isopropylsulfonylphenyl)pyrazin-2-amine] | ≤ 10 nM
Nc1ncc(-c2cccnc2)nc1C(=O)Nc1ccncc1 [Compound I-98, 3-amino-6-(pyridin-3-yl)-N-(pyridin-4-yl)pyrazine-2-carboxamide] | 100 to 5000 nM
CN(C)C1CCN(C(=O)c2ccc(-c3cnc(N)c(-c4nnc(-c5ccccc5)o4)n3)c(C(F)(F)F)c2)CC1 [IA-22] | 10 to 100 nM
CC1CN(C(=O)c2ccc(-c3cnc(N)c(-c4nnc(-c5ccccc5)o4)n3)cc2)CCN1 (centres unmarked) [IA-17] | 10 to 100 nM
CC(C)S(=O)(=O)c1ccc(-c2cnc(N)c(-c3nnc(CCN)o3)n2)cc1 [IA-214, 3-[5-(2-aminoethyl)-1,3,4-oxadiazol-2-yl]-5-(4-isopropylsulfonylphenyl)pyrazin-2-amine] | 10 to 100 nM
Nc1ncc(-c2ccnc(N3CCNCC3)c2)nc1-c1nnc(-c2ccccc2)o1 [IA-271, 3-(5-phenyl-1,3,4-oxadiazol-2-yl)-5-(2-piperazin-1-yl-4-pyridyl)pyrazin-2-amine] | 100 to 5000 nM
Nc1ncc(-c2ccc(C(=O)NCCN3CCCCC3)cc2)nc1C(=O)Nc1ccccc1 [Compound I-49, 3-amino-N-phenyl-6-(4-(2-(piperidin-1-yl)ethylcarbamoyl)phenyl) pyrazine-2-carboxamide] | 100 to 5000 nM
Nc1ncc(-c2cccc(C(=O)N3CCOCC3)c2)nc1-c1nc2ccccc2[nH]1 [Compound I-125, (3-(5-amino-6-(1H-benzo[d]imidazol-2-yl)pyrazin-2-yl)phenyl) (morpholino)methanone] | 10 to 100 nM
CS(=O)(=O)c1ccc(-c2cnc(N)c(-c3noc(-c4ccccc4)n3)n2)cc1 [Compound I-144, 5-(4-(methylsulfonyl)phenyl)-3-(5-phenyl-1,2,4-oxadiazol-3-yl)pyrazin-2-amine] | ≤ 10 nM
CS(=O)(=O)c1cccc(-c2cnc(N)c(C(=O)Nc3ccccc3)n2)c1 [Compound I-3] | 100 to 5000 nM
CC(C)Oc1ccccc1-c1nnc(-c2nc(-c3ccc(C(=O)N(C)C)cc3)cnc2N)o1 [IA-108, 4-[5-amino-6-[5-(2-isopropoxyphenyl)-1,3,4-oxadiazol-2-yl]pyrazin-2-yl]-N,N-dimethyl-benzamide] | ≤ 10 nM
CN(C)C(=O)c1ccc(-c2cnc(N)c(-c3nnc(Nc4cccc(Cl)c4)o3)n2)cc1 [IA-43] | 10 to 100 nM
NC(=O)c1cccc(NC(=O)c2nc(-c3cccnc3)cnc2N)c1 [Compound I-88, 3-amino-N-(3-carbamoylphenyl)-6-(pyridin-3-yl)pyrazine-2-carboxamide] | 100 to 5000 nM
CN(C)C(=O)c1ccc(-c2cnc(N)c(-c3nnc(-c4cccc(CO)c4)o3)n2)cc1 [IA-198, 4-[5-amino-6-[5-[3-(hydroxymethyl)phenyl]-1,3,4-oxadiazol-2-yl]pyrazin-2-yl]-N,N-dimethyl-benzamide] | 10 to 100 nM
Nc1ncc(-c2ccccc2C(F)(F)F)nc1C(=O)Nc1ccccc1 [Compound I-6, 3-amino-N-phenyl-6-(2-(trifluoromethyl)phenyl)pyrazine-2-carboxamide] | 100 to 5000 nM
